Assay results from US9902736B2, “1-oxo/acylation-14-acylated oridonin derivative, preparation method therefor and application thereof” (HANGZHOU BENSHENG PHARMACEUTICAL CO., LTD., priority 2012, dated 2018).
Converted amounts (≈) assume the structure as drawn. Blank lines part the entries; values can stand above or below the compound they belong to.

Tests used:
RKO = test: Solid tumor cell growth inhibition, MTT, 72 h; assay type: cell-based; details: Homo sapiens
Experimental: (§1) 6000 well-growing human solid tumor cells were obtained and inoculated into wells of a 96-well cell culture plate. The culture medium was DMEM High Glucose cell culture medium containing 10% fetal bovine serum. The plate was placed in a carbon dioxide cell incubator (5% CO2) at 37° C. and incubated for 24 hours. After added with 1-oxo/acylated-14-acylated oridonin derivatives of different concentration and mixed uniformly, the plate was placed in a carbon dioxide cell incubator (5% CO2) at 37° C. and incubated for 72 hours. Then the viable cell concentration was determined by MTT method.

MG-63 = test: Solid tumor cell growth inhibition, MTT, 72 h; assay type: cell-based; details: Homo sapiens
Experimental: as §1

A549 = test: Solid tumor cell growth inhibition, MTT, 72 h; assay type: cell-based; details: Homo sapiens
Experimental: as §1

PC-3 = test: Solid tumor cell growth inhibition, MTT, 72 h; assay type: cell-based; details: Homo sapiens
Experimental: as §1

SK-OV-3 = test: Solid tumor cell growth inhibition, MTT, 72 h; assay type: cell-based; details: Homo sapiens, SK-OV-3, 72 h, MTT; for IC50: read-out: IC50 SK-OV-3; for IC90: read-out: IC90 SK-OV-3
Experimental: as §1

Hep G2 = test: Solid tumor cell growth inhibition, MTT, 72 h; assay type: cell-based; details: Homo sapiens, HepG2
Experimental: as §1

Becap-37 = test: Solid tumor cell growth inhibition, MTT, 72 h; assay type: cell-based; details: Homo sapiens
Experimental: as §1

CaEs-17 = test: Solid tumor cell growth inhibition, MTT, 72 h; assay type: cell-based; details: Homo sapiens, CaEs17
Experimental: as §1

PANC-1 = test: Solid tumor cell growth inhibition, MTT, 72 h; assay type: cell-based; details: Homo sapiens
Experimental: as §1

U87-MG = test: Solid tumor cell growth inhibition, MTT, 72 h; assay type: cell-based; details: Homo sapiens, U-87 MG
Experimental: as §1

Jurkat = test: Leukemia cell growth inhibition, MTT, 72 h; assay type: cell-based, human; details: for IC50 / IC90: Homo sapiens, Jurkat, 72 h, MTT; for anti-Jurkat cell line activity increased: as compared with oridonin
Excerpt: (§2) Leukemia cell lines: leukemia cell lines: K562/adr (drug-resistant, chronic myeloid leukemia, CML), NB4 (acute promyelocytic leukemia, AML), Kasumi-1 (acute myeloid leukemia M2 type, AML-M2), Jurkat (acute lymphoblastic leukemia, ALL), all of which were donated by Cancer Research Institute of Zhejiang University, China; and H9 (acute lymphoblastic leukemia, ALL), which was purchased from China Center for Type Culture Collection.
(§3) 6000 well-growing leukemia cells were obtained and inoculated into wells of a 96-well cell culture plate. […] On the next day, the 1-oxo/acylated-14-acylated oridonin derivatives of different concentrations were added and mixed uniformly. The plate was placed in a carbon dioxide cell incubator (5% CO2) at 37° C. and was incubated for 72 hours. Then the viable cell concentration was determined by MTT method.

H9 = test: Leukemia cell growth inhibition, MTT, 72 h; assay type: cell-based, human; details: Homo sapiens, H9; 72 h, MTT
Excerpt: as §2, §3

NB4 = test: Leukemia cell growth inhibition, MTT, 72 h; assay type: cell-based, human; details: Homo sapiens, NB-4; 72 h, MTT
Excerpt: as §2, §3

RPMI 8226 = test: Multiple myeloma cell growth inhibition, MTT, 72 h; assay type: cell-based; details: Homo sapiens
Experimental: Multiple myeloma cell lines: RPMI8226 (multiple myeloma), purchased from Fuxiang Bio-tech Co. Ltd., Shanghai, China.
as §3, with “well-growing” for “well-growing leukemia”, “and” for “and was”

Hep-2 = test: Solid tumor cell growth inhibition, MTT, 72 h; assay type: cell-based, human; details: Homo sapiens, HEp-2; 72 h, MTT
Experimental: as §1

Hela = test: Solid tumor cell growth inhibition, MTT, 72 h; assay type: cell-based, human; details: Homo sapiens, HeLa; 72 h, MTT
Experimental: as §1

MGC-803 = test: Solid tumor cell growth inhibition, MTT, 72 h; assay type: cell-based, human; details: Homo sapiens, MGC-803; 72 h, MTT
Experimental: as §1

CNE = test: Solid tumor cell growth inhibition, MTT, 72 h; assay type: cell-based, human; details: Homo sapiens, CNE; 72 h, MTT
Experimental: as §1

K562/ADR = test: Leukemia cell growth inhibition, MTT, 72 h; assay type: cell-based; details: Homo sapiens
Excerpt: as §2, §3

Kasumi-1 = test: Leukemia cell growth inhibition, MTT, 72 h; assay type: cell-based; details: Homo sapiens
Excerpt: as §2, §3

IC50 (RKO): 0.46 µg/mL (≈ 0.918 µM)
IC90 (RKO): 0.95 µg/mL (≈ 1.9 µM)
IC50 (MG-63): 0.46 µg/mL (≈ 0.918 µM)
IC90 (MG-63): 0.95 µg/mL (≈ 1.9 µM)
IC50 (A549): 2.83 µg/mL (≈ 5.65 µM)
IC90 (A549): 7.29 µg/mL (≈ 14.6 µM)
IC50 (PC-3): 1.66 µg/mL (≈ 3.31 µM)
IC90 (PC-3): 4.77 µg/mL (≈ 9.52 µM)
IC50 (SK-OV-3): 1.66 µg/mL (≈ 3.31 µM)
IC90 (SK-OV-3): 4.77 µg/mL (≈ 9.52 µM)
IC50 (Hep G2): 0.99 µg/mL (≈ 1.98 µM)
IC90 (Hep G2): 11.7 µg/mL (≈ 23.4 µM)
IC50 (Becap-37): 1.03 µg/mL (≈ 2.06 µM)
IC90 (Becap-37): 3.72 µg/mL (≈ 7.43 µM)
IC50 (CaEs-17): 1.1 µg/mL (≈ 2.2 µM)
IC90 (CaEs-17): 5.51 µg/mL (≈ 11 µM)
IC50 (PANC-1): 1.86 µg/mL (≈ 3.71 µM)
IC90 (PANC-1): 10.7 µg/mL (≈ 21.3 µM)
IC50 (U87-MG): 0.94 µg/mL (≈ 1.88 µM)
IC90 (U87-MG): 2.78 µg/mL (≈ 5.55 µM)
IC50 (Jurkat): 0.48 µg/mL (≈ 0.958 µM)
IC90 (Jurkat): 6.06 µg/mL (≈ 12.1 µM)
IC50 (H9): 0.38 µg/mL (≈ 0.759 µM)
IC90 (H9): 0.96 µg/mL (≈ 1.92 µM)
IC50 (NB4): 0.15 µg/mL (≈ 0.299 µM)
IC90 (NB4): 0.95 µg/mL (≈ 1.9 µM)
IC50 (RPMI 8226): 0.28 µg/mL (≈ 0.559 µM)
IC90 (RPMI 8226): 1.78 µg/mL (≈ 3.55 µM)
IC50 (Hep-2): 1.8 µg/mL (≈ 3.59 µM)
IC90 (Hep-2): 9.11 µg/mL (≈ 18.2 µM)
IC50 (Hela): 1.49 µg/mL (≈ 2.97 µM)
IC90 (Hela): 5.31 µg/mL (≈ 10.6 µM)
IC50 (MGC-803): 0.68 µg/mL (≈ 1.36 µM)
IC90 (MGC-803): 9.04 µg/mL (≈ 18 µM)
IC50 (CNE): 1.39 µg/mL (≈ 2.77 µM)
IC90 (CNE): 5.94 µg/mL (≈ 11.9 µM)
IC50 (K562/ADR): 0.44 µg/mL (≈ 0.878 µM)
IC90 (K562/ADR): 1.98 µg/mL (≈ 3.95 µM)
IC50 (Kasumi-1): 0.57 µg/mL (≈ 1.14 µM)
IC90 (Kasumi-1): 1.76 µg/mL (≈ 3.51 µM)
SMILES: C=C1C(=O)[C@]23[C@H](OC(=O)c4ccc(Cl)cc4)[C@H]1CC[C@H]2[C@@]12CO[C@@]3(O)[C@@H](O)[C@@H]1C(C)(C)CCC2=O [BS-OR-010]
anti-Jurkat cell line activity increased (Jurkat): ~4 fold

IC50 (RKO): 0.43 µg/mL (≈ 0.91 µM)
IC90 (RKO): 0.95 µg/mL (≈ 2.01 µM)
IC50 (MG-63): 0.42 µg/mL (≈ 0.889 µM)
IC90 (MG-63): 0.96 µg/mL (≈ 2.03 µM)
IC50 (A549): 2.13 µg/mL (≈ 4.51 µM)
IC90 (A549): 5.34 µg/mL (≈ 11.3 µM)
IC50 (PC-3): 1.69 µg/mL (≈ 3.58 µM)
IC90 (PC-3): 4.6 µg/mL (≈ 9.73 µM)
IC50 (SK-OV-3): 1.69 µg/mL (≈ 3.58 µM)
IC90 (SK-OV-3): 4.6 µg/mL (≈ 9.73 µM)
IC50 (Hep G2): 1.54 µg/mL (≈ 3.26 µM)
IC90 (Hep G2): 10.8 µg/mL (≈ 22.9 µM)
IC50 (Becap-37): 1.02 µg/mL (≈ 2.16 µM)
IC90 (Becap-37): 3.8 µg/mL (≈ 8.04 µM)
IC50 (CaEs-17): 0.93 µg/mL (≈ 1.97 µM)
IC90 (CaEs-17): 5.32 µg/mL (≈ 11.3 µM)
IC50 (PANC-1): 1.63 µg/mL (≈ 3.45 µM)
IC90 (PANC-1): 8.55 µg/mL (≈ 18.1 µM)
IC50 (U87-MG): 0.78 µg/mL (≈ 1.65 µM)
IC90 (U87-MG): 3.21 µg/mL (≈ 6.79 µM)
IC50 (Jurkat): 0.71 µg/mL (≈ 1.5 µM)
IC90 (Jurkat): 4.45 µg/mL (≈ 9.42 µM)
IC50 (H9): 0.41 µg/mL (≈ 0.868 µM)
IC90 (H9): 0.92 µg/mL (≈ 1.95 µM)
IC50 (NB4): 0.08 µg/mL (≈ 0.169 µM)
IC90 (NB4): 0.47 µg/mL (≈ 0.995 µM)
IC50 (RPMI 8226): 0.37 µg/mL (≈ 0.783 µM)
IC90 (RPMI 8226): 2.59 µg/mL (≈ 5.48 µM)
IC50 (Hep-2): 1.76 µg/mL (≈ 3.72 µM)
IC90 (Hep-2): 9.2 µg/mL (≈ 19.5 µM)
IC50 (Hela): 1.64 µg/mL (≈ 3.47 µM)
IC90 (Hela): 4.92 µg/mL (≈ 10.4 µM)
IC50 (MGC-803): 0.95 µg/mL (≈ 2.01 µM)
IC90 (MGC-803): 9.79 µg/mL (≈ 20.7 µM)
IC50 (CNE): 1.33 µg/mL (≈ 2.81 µM)
IC90 (CNE): 5.16 µg/mL (≈ 10.9 µM)
IC50 (K562/ADR): 0.47 µg/mL (≈ 0.995 µM)
IC90 (K562/ADR): 1.86 µg/mL (≈ 3.94 µM)
IC50 (Kasumi-1): 0.71 µg/mL (≈ 1.5 µM)
IC90 (Kasumi-1): 1.76 µg/mL (≈ 3.72 µM)
SMILES: C=C1C(=O)[C@]23[C@H](OC(=O)c4cccs4)[C@H]1CC[C@H]2[C@@]12CO[C@@]3(O)[C@@H](O)[C@@H]1C(C)(C)CCC2=O [BS-OR-007]

IC50 (RKO): 0.31 µg/mL (≈ 0.624 µM)
IC90 (RKO): 0.84 µg/mL (≈ 1.69 µM)
IC50 (MG-63): 0.28 µg/mL (≈ 0.564 µM)
IC90 (MG-63): 0.75 µg/mL (≈ 1.51 µM)
IC50 (A549): 1.71 µg/mL (≈ 3.44 µM)
IC90 (A549): 4.31 µg/mL (≈ 8.68 µM)
IC50 (PC-3): 1.22 µg/mL (≈ 2.46 µM)
IC90 (PC-3): 3.16 µg/mL (≈ 6.36 µM)
IC50 (SK-OV-3): 1.22 µg/mL (≈ 2.46 µM)
IC90 (SK-OV-3): 3.16 µg/mL (≈ 6.36 µM)
IC50 (Hep G2): 0.84 µg/mL (≈ 1.69 µM)
IC90 (Hep G2): 5.27 µg/mL (≈ 10.6 µM)
IC50 (Becap-37): 0.7 µg/mL (≈ 1.41 µM)
IC90 (Becap-37): 2.78 µg/mL (≈ 5.6 µM)
IC50 (CaEs-17): 0.81 µg/mL (≈ 1.63 µM)
IC90 (CaEs-17): 3.03 µg/mL (≈ 6.1 µM)
IC50 (PANC-1): 1.26 µg/mL (≈ 2.54 µM)
IC90 (PANC-1): 4.91 µg/mL (≈ 9.89 µM)
IC50 (U87-MG): 0.7 µg/mL (≈ 1.41 µM)
IC90 (U87-MG): 2.16 µg/mL (≈ 4.35 µM)
IC50 (Jurkat): 0.44 µg/mL (≈ 0.886 µM)
IC90 (Jurkat): 2.88 µg/mL (≈ 5.8 µM)
IC50 (H9): 0.38 µg/mL (≈ 0.765 µM)
IC90 (H9): 0.92 µg/mL (≈ 1.85 µM)
IC50 (NB4): 0.07 µg/mL (≈ 0.141 µM)
IC90 (NB4): 0.49 µg/mL (≈ 0.987 µM)
IC50 (RPMI 8226): 0.26 µg/mL (≈ 0.524 µM)
IC90 (RPMI 8226): 0.96 µg/mL (≈ 1.93 µM)
IC50 (Hep-2): 1.3 µg/mL (≈ 2.62 µM)
IC90 (Hep-2): 5.6 µg/mL (≈ 11.3 µM)
IC50 (Hela): 1.16 µg/mL (≈ 2.34 µM)
IC90 (Hela): 3.4 µg/mL (≈ 6.85 µM)
IC50 (MGC-803): 0.7 µg/mL (≈ 1.41 µM)
IC90 (MGC-803): 5.4 µg/mL (≈ 10.9 µM)
IC50 (CNE): 1.09 µg/mL (≈ 2.2 µM)
IC90 (CNE): 4.45 µg/mL (≈ 8.96 µM)
IC50 (K562/ADR): 0.4 µg/mL (≈ 0.806 µM)
IC90 (K562/ADR): 1.44 µg/mL (≈ 2.9 µM)
IC50 (Kasumi-1): 0.43 µg/mL (≈ 0.866 µM)
IC90 (Kasumi-1): 1.05 µg/mL (≈ 2.11 µM)
SMILES: C=C1C(=O)[C@]23[C@H](OC(=O)c4ccc(OC)cc4)[C@H]1CC[C@H]2[C@@]12CO[C@@]3(O)[C@@H](O)[C@@H]1C(C)(C)CCC2=O [BS-OR-005]
anti-Jurkat cell line activity increased (Jurkat): ~4 fold
